From paper PMC12856912, “Structure-Guided Semisynthesis of Blasticidin S–Amicetin Chimeras as Selective Ribosome Inhibitors” (Journal of the American Chemical Society, 2026)
In brackets after ≈: the same amount, converted by molar mass. Like-named read-outs stand apart in the source and are kept apart here.

Experiments:
S. aureus ATCC 6538P = experiment: Antibacterial MIC assay, serial dilution; assay type: cell-based, Staphylococcus aureus; settings: for Selectivity index (CC50/MIC) S. aureus 6538P: CC50 Vero cells / MIC; for MIC: Staphylococcus aureus, ATCC 6538P / ATCC 6539P, read-out: MIC S. aureus ATCC 6539P
Protocol: (§1) Media and solutions were autoclaved or sterile filtered prior to use and mani pulations were carri ed out in a laminar flow hood. Antibacterial t esting was performed in polypropylene 96-well flat bottom plates. The minimal inhibitory concentration of blasticidin S (1) hydrochloride, methyl ester (3) trihydrochloride, P10 (2) tri-T FA , phenet hyl amide (4) tri -T FA , an d blastimidines M 19– 22, A, 29–32, P 37–40, and C 43–46 (salt forms as described in the te xt) were assessed against Staphylococcus aureus ΔNorA, S. aureus ATCC 6538P, methicillin-resistant S. aureus (MRSA) ATCC 43300, Enterococcus faecalis ATCC 29212, vancomycin- resistant Enterococcus, Klebsiella pneumoniae ATCC 29665, Pseudomonas aeruginosa,and Acinetobacter baumannii ATCC 17978 using serial dilutions. Doxycycline (Gold Bio) as a positive control and the vehicle as a negative control. Stock solutions of each compound were prepared at 2.56 mg/mL in 50% DMSO/water and serially diluted in 50% DMSO/water to create master plates. From the master plates, 10 μ L o f each dilution was applied to test plates using a Bravo automated liquid transfer system (Agilent).
(§2) Bacteria previously grown overnight (37 °C, 120–200 RPM), in LB broth were diluted to an OD600 of 0.05 in cation-adjusted Mueller-Hinton broth (CAMHB), grown to an OD600 of ~0.5, and diluted to an OD600 of 0.004 in CAMHB . These diluted cultures were applied to the test plates (190 μL per test well) resulting in final concentrations of the test compounds of 128–1 μg/ m L.
(§3) Growth controls (wells with inoculated media but no vehicle or test compounds) were included to assess any potential toxicity from the vehicle. Th e plates were in cubated at 37 °C for 16–18 h, except fo r VRE and E. faecalis, which w ere in cub ated at 37 °C fo r 24 h. Inh ibition was determined by measuring the optical density at 600 nm (OD60 0) with a Cytation 3 pl ate read er (BioTek). The optical density measurem ents were no rmalized to the positive and negative controls and the vehicle and growth controls were compared and found to b e indistinguishable, indicating no toxicity from […]
(§4) the vehicle used. The MIC was the lowest concentration that inhibited >90% of growth. Two biological replicates were performed in duplicate. MIC values are reported as a range from […]

MRSA ATCC 43300 = experiment: Antibacterial MIC assay, serial dilution; assay type: cell-based, Staphylococcus aureus; settings: for Selectivity index (CC50/MIC) MRSA 43300: CC50 Vero cells / MIC; for MIC: Staphylococcus aureus, read-out: MIC MRSA ATCC 43300
Protocol: as §1, §2, §3, §4

S. aureus ΔNorA = experiment: Antibacterial MIC assay, serial dilution; assay type: cell-based, Staphylococcus aureus; settings: for Selectivity index (CC50/MIC) S. aureus ΔNorA: CC50 Vero cells / MIC; for MIC: Staphylococcus aureus, read-out: MIC S. aureus ∆NorA
Protocol: as §1, §2, §3, §4

[1] = system: Methicillin resistant S. aureus (MRSA) USA300; experiment: Antibacterial MIC assay, serial dilution; assay type: cell-based, Staphylococcus aureus; settings: for Selectivity index (CC50/MIC) MRSA USA300: CC50 Vero cells / MIC; for MIC: Staphylococcus aureus, read-out: MIC Methicillin resistant S. aureus (MRSA) USA300
[2] = Cytotoxicity assay (MTS/PMS); assay type: cell-based; settings: monkey, 24 h treatment, MTS/PMS, average of three biological replicates, read-out: CC50 against Vero cells
Protocol: The potential cytotoxic eff ect of the test compounds was investigated using Vero cells (monkey kidney epitheli al cells) following est ablished protocols.3 Briefly, Vero cells were plated into 96-well plates supplemented with Dulbecco's Modified Eagle Medium (DMEM) containing 10% fetal bovine serum (FBS). The cells were placed in a humidified 37 °C environment for incubation with 5% CO₂ for 24 h to allow proper adherence and growth. Following the incubation period, the culture medium was replaced with fresh DMEM containing serial dilutions of the test compounds, while the v ehicle alon e w as used as a negative control. The treated cells were incubated for an additional 24 h. To assess cell viability, the MTS/PMS reagent was added to each well and incubat ed for 4 h. A microplate reader (S ynergy H1, BioTek, USA) was used to m easure absorbance at 490 nm. Al l experiments wer e cond ucted usingthree biologi cal replicates .
Ta b l e S2. CC50 valuesa (µg/mL) against Vero cells […]
aValues at which the cell viability (normalized to vehicle control) was 50%. […]

[3] = system: Klebsiella pneumoniae ATCC 29665; experiment: Antibacterial MIC assay, serial dilution; assay type: cell-based; settings: for Selectivity index (CC50/MIC) K. pneumoniae: CC50 Vero cells / MIC; for MIC: Klebsiella pneumoniae, ATCC29665, range from biological replicates, read-out: MIC K. pneumoniae ATCC-29665
Protocol: as §1, §2, §3, §4

[4] = system: Enterococcus faecalis ATCC 29212; experiment: Antibacterial MIC assay, serial dilution; assay type: cell-based; settings: for Selectivity index (CC50/MIC) E. faecalis 29212: CC50 Vero cells / MIC; for MIC: Enterococcus faecalis, ATCC 29112 / ATCC 29212, 24 h, read-out: MIC E. faecalis ATCC 29112
Protocol: as §1, §2, §3, §4

[5] = system: Acinetobacter baumannii ATCC 17978; experiment: Antibacterial MIC assay, serial dilution; assay type: cell-based; settings: ATCC17978, range from biological replicates
Protocol: as §1, §2, §3, §4

[6] = system: Vancomycin resistant Enterococcus faecium NR-31909 (VRE); experiment: Antibacterial MIC assay, serial dilution; assay type: cell-based; settings: for Selectivity index (CC50/MIC) VRE NR-31909: CC50 Vero cells / MIC; for MIC: Enterococcus faecium, VRE, 24 h, read-out: MIC Vancomycin resistant Enterococcus faecium NR-31909 (VRE)
Protocol: as §1, §2, §3, §4

Pseudomonas aeruginosa = experiment: Antibacterial MIC assay, serial dilution; assay type: cell-based; settings: for Selectivity index (CC50/MIC) P. aeruginosa: CC50 Vero cells / MIC; for MIC: Pseudomonas aeruginosa, range from biological replicates, read-out: MIC P. aeruginosa
Protocol: as §1, §2, §3, §4

[7] = system: Methicillin resistant Staphylococcus epidermidis (MRSE) ATCC 35984 NRS101; experiment: Antibacterial MIC assay, serial dilution; assay type: cell-based; settings: for Selectivity index (CC50/MIC) MRSE 35984: CC50 Vero cells / MIC; for MIC: Staphylococcus epidermidis, read-out: MIC Methicillin resistant Staphylococcus epidermidis (MRSE) ATCC 35984 NRS101
[8] = system: Vancomycin resistant E. faecalis NR-31972 (VRE); experiment: Antibacterial MIC assay, serial dilution; assay type: cell-based, Enterococcus faecalis; settings: for Selectivity index (CC50/MIC) VRE NR-31972: CC50 Vero cells / MIC; for MIC: Enterococcus faecalis, VRE, 24 h, read-out: MIC Vancomycin resistant E. faecalis NR-31972 (VRE)
Protocol: as §1, §2, §3, §4

[9] = system: Escherichia coli BAA-2452; experiment: Antibacterial MIC assay, serial dilution; assay type: cell-based; settings: BAA2452, read-out: MIC Escherichia coli BAA-2452
[10] = Vero cells (monkey kidney epithelial cells)

Row | Compound | Selectivity index (CC50/MIC) S. aureus 6538P (S. aureus ATCC 6538P) | MIC (S. aureus ATCC 6538P) | Selectivity index (CC50/MIC) MRSA 43300 (MRSA ATCC 43300) | MIC (MRSA ATCC 43300) | Selectivity index (CC50/MIC) S. aureus ΔNorA (S. aureus ΔNorA) | MIC (S. aureus ΔNorA) | Selectivity index (CC50/MIC) MRSA USA300 [1] | MIC [1] | Selectivity index (CC50/MIC) K. pneumoniae [3] | MIC [3] | Selectivity index (CC50/MIC) E. faecalis 29212 [4] | MIC [4] | MIC [5] | Selectivity index (CC50/MIC) VRE NR-31909 [6] | MIC [6] | Selectivity index (CC50/MIC) P. aeruginosa (Pseudomonas aeruginosa) | MIC (Pseudomonas aeruginosa) | Selectivity index (CC50/MIC) MRSE 35984 [7] | MIC [7] | Selectivity index (CC50/MIC) VRE NR-31972 [8] | other results
1 | CN(CC[C@H](N)CC(=O)N[C@H]1C=C[C@H](n2ccc(NC(=O)c3ccc(N)cc3)nc2=O)O[C@@H]1C(N)=O)C(=N)N [Blastimidine A2] | 1.0 | 16 µg/mL (≈ 29.6 µM) | 1.0 | 16 µg/mL (≈ 29.6 µM) | 0.5 | 32 µg/mL (≈ 59.2 µM) | 1.0 | 16 µg/mL (≈ 29.6 µM) | 1.0 | 16 µg/mL (≈ 29.6 µM) | 1.0 | 16 µg/mL (≈ 29.6 µM) | > 128 µg/mL | 1.0 | 16 µg/mL (≈ 29.6 µM) | <0.1 | > 128 µg/mL | 0.5 | 32 µg/mL (≈ 59.2 µM) | 0.5 | CC50 at 24 h [2, 10]: 16 µg/mL (≈ 29.6 µM); MIC [8]: 32 µg/mL (≈ 59.2 µM); MIC [9]: 16 µg/mL (≈ 29.6 µM)
2 | CN(CC[C@H](N)CC(=O)N[C@H]1C=C[C@H](n2ccc(NC(=O)c3ccc(NC(=O)[C@@](C)(N)CO)cc3)nc2=O)O[C@@H]1C(=O)O)C(=N)N [Blastimidine C5] | <1.4 | > 128 µg/mL | <1.4 | > 128 µg/mL | <1.4 | > 128 µg/mL | <1.4 | > 128 µg/mL | <1.4 | > 128 µg/mL | <1.4 | > 128 µg/mL | > 128 µg/mL | <1.4 | > 128 µg/mL | <1.4 | > 128 µg/mL | <1.4 | > 128 µg/mL | <1.4 | CC50 at 24 h [2, 10]: 177 µg/mL (≈ 275 µM); MIC [8]: > 128 µg/mL; MIC [9]: > 128 µg/mL
3 | CN(CC[C@H](N)CC(=O)N[C@H]1C=C[C@H](n2ccc(N)nc2=O)O[C@@H]1C(=O)O)C(=N)N [Blastimidine C1, blasticidin S] | <0.1 | > 128 µg/mL | <0.1 | > 128 µg/mL | <0.1 | > 128 µg/mL | 0.1 | 128 µg/mL (≈ 303 µM) | 0.1 | 128 µg/mL (≈ 303 µM) | 0.6 | 32 µg/mL (≈ 75.7 µM) | > 128 µg/mL | 0.1 | 128 µg/mL (≈ 303 µM) | <0.1 | > 128 µg/mL | <0.1 | > 128 µg/mL | 0.1 | CC50 at 24 h [2]: 18 µg/mL (≈ 42.6 µM); MIC [8]: 128 µg/mL (≈ 303 µM); MIC [9]: 64 µg/mL (≈ 151 µM)
4 | CC(=O)Nc1ccc(C(=O)Nc2ccn([C@H]3C=C[C@H](NC(=O)C[C@@H](N)CCN(C)C(=N)N)[C@@H](C(N)=O)O3)c(=O)n2)cc1 [Blastimidine A4] | 1.1 | 64 µg/mL (≈ 110 µM) | 1.1 | 64 µg/mL (≈ 110 µM) | 1.1 | 64 µg/mL (≈ 110 µM) | 1.1 | 64 µg/mL (≈ 110 µM) | 3.2 | 16 to 32 µg/mL (≈ 27.5 to 54.9 µM) | 2.1 | 32 µg/mL (≈ 54.9 µM) | > 128 µg/mL | 2.1 | 32 µg/mL (≈ 54.9 µM) | <0.5 | > 128 µg/mL | 1.1 | 64 µg/mL (≈ 110 µM) | 1.1 | CC50 at 24 h [2, 10]: 68 µg/mL (≈ 117 µM); MIC [8]: 64 µg/mL (≈ 110 µM); MIC [9]: 32 µg/mL (≈ 54.9 µM)
5 | COC(=O)[C@H]1O[C@@H](n2ccc(NC(=O)c3ccc(NC(C)=O)cc3)nc2=O)C=C[C@@H]1NC(=O)C[C@@H](N)CCN(C)C(=N)N [Blastimidine M4] | 9.9 | 16 to 32 µg/mL (≈ 26.8 to 53.5 µM) | 6.6 | 32 µg/mL (≈ 53.5 µM) | 6.6 | 32 µg/mL (≈ 53.5 µM) | 3.3 | 64 µg/mL (≈ 107 µM) | 6.6 | 32 µg/mL (≈ 53.5 µM) | 6.6 | 32 µg/mL (≈ 53.5 µM) | > 128 µg/mL | 1.6 | 128 µg/mL (≈ 214 µM) | <1.6 | > 128 µg/mL | 3.3 | 64 µg/mL (≈ 107 µM) | 3.3 | CC50 at 24 h [2, 10]: 210 µg/mL (≈ 351 µM); MIC [8]: 64 µg/mL (≈ 107 µM); MIC [9]: 64 µg/mL (≈ 107 µM)
6 | COC(=O)[C@H]1O[C@@H](n2ccc(NC(=O)c3ccc(NC(=O)[C@@](C)(N)CO)cc3)nc2=O)C=C[C@@H]1NC(=O)C[C@@H](N)CCN(C)C(=N)N [Blastimidine M5] | 2.3 | 64 µg/mL (≈ 97.5 µM) | 2.3 | 64 µg/mL (≈ 97.5 µM) | 2.3 | 64 µg/mL (≈ 97.5 µM) | 2.3 | 64 µg/mL (≈ 97.5 µM) | 3.5 | 32 to 64 µg/mL (≈ 48.7 to 97.5 µM) | 2.3 | 64 µg/mL (≈ 97.5 µM) | > 128 µg/mL | 6.3 | 16 to 32 µg/mL (≈ 24.4 to 48.7 µM) | <1.2 | > 128 µg/mL | 2.3 | 64 µg/mL (≈ 97.5 µM) | 2.3 | CC50 at 24 h [2, 10]: 150 µg/mL (≈ 228 µM); MIC [8]: 64 µg/mL (≈ 97.5 µM); MIC [9]: 32 µg/mL (≈ 48.7 µM)
